Measured values as given in patent US11066405B2, “Bicyclic compounds and their use in the treatment of cancer” (Tempest Therapeutics, Inc., priority 2017, dated 2021).
pIC50: −log10 of the molar value.

The compounds below were run against T1, EP4 (Homo sapiens, UniProt P35408) (assay: EP4 Ca2+-flux assay (functional calcium flux assay, stably transfected HEK293 cells)). Settings: HEK293 cells stably transfected with EP4; ligand PGE2 10 nM; luminescence readout.
T1 construct: host or cells: HEK293, stably transfected; also expresses a promiscuous G protein and a clytin variant
T1 sequence (P35408 whole entry): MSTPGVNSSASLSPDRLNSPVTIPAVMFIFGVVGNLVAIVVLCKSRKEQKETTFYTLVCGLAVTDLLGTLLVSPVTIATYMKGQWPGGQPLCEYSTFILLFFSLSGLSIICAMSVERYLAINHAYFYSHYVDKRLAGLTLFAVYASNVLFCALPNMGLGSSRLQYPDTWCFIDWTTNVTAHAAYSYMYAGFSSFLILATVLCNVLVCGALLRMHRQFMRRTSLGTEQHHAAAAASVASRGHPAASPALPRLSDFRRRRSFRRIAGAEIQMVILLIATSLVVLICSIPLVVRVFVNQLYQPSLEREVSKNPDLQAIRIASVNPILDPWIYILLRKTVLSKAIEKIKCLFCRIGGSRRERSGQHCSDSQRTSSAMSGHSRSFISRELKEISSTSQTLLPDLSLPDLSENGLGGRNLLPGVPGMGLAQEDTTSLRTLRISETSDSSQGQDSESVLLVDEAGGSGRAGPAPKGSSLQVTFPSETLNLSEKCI
Type: cell-based
Experimental: The compounds in the present disclosure were tested in a functional calcium flux assay using stably transfected HEK293 cells. Cells transfected with EP1, EP2, EP3 and EP4 were purchased from Eurofins Discovery Services (St. Charles, Mo.). Each receptor subtype has an additional promiscuous G protein added in order to couple to the calcium signaling pathway. The parental cell line used also expresses a novel variant of clytin, a calcium-activated photo-protein, to enable sensitive luminescent detection.
Cells were plated at 50,000 cells per well in black, clear bottom 96-well plates. The plated cells were allowed to sit at room temperature for 30 min prior to transferring to a humidified, 37° C., 5% CO2 incubator for 18-24 h. Assay buffer (HBSS with 20 mM HEPES) and loading buffer (assay buffer plus 10 μM Coelenterazine) were prepared on the day of the assay. Assays were performed by aspirating media from the assay plate and washing once with assay buffer, then replacing with loading buffer and allowing the cells to incubate for 1.5 h at room temperature. Compounds were prepared in assay buffer at a 3× final concentration in non-binding plates. Compounds were added to the cell plates and incubated for 30 min at room temperature. The prostanoid receptor ligand PGE2 was prepared at a 4× dilution ratio for a final concentration of 10 nM. Plates were run on a Flexstation™ using a 100 ms integration luminescence protocol for a total of 60 sec with ligand addition at 15 sec. Data were obtained from relative light units as measured by area under the curve.
Compound `O=C(NC1CC2(C1)CC(C(=O)O)C2)c1ccnc2ccn(Cc3ccc(C(F)(F)F)cc3)c12` (racemic) [Example 9, rac-6-(1-(4-(trifluoromethyl)benzyl)-1H-pyrrolo[3,2-b]pyridine-7-carboxamido) spiro[3.3]heptane-2-carboxylic Acid] has a pIC50 of 8.22.
`O=C(NC1CC2(C1)CC(C(=O)O)C2)c1nccc2ccn(Cc3ccc(C(F)(F)F)cc3)c12` (racemic) [Example 11, rac-6-(1-(4-(trifluoromethyl)benzyl)-1H-pyrrolo[2,3-c]pyridine-7-carboxamido)spiro[3.3]heptane-2-carboxylic Acid] showed a pIC50 of 7.62.
`O=C(NC1CC2(C1)CC(C(=O)O)C2)c1cccc2cnn(Cc3ccc(C(F)(F)F)cc3)c12` (racemic) [Example 12, rac-6-(1-(4-(trifluoromethyl)benzyl)-1H-indazole-7-carboxamido)spiro[3.3]heptane-2-carboxylic Acid] showed a pIC50 of 8.57.
For `O=C(NC1CC2(C1)CC(C(=O)O)C2)c1cccc2ncn(Cc3ccc(C(F)(F)F)cc3)c12` (racemic) [Example 13, rac-6-(1-(4-(trifluoromethyl)benzyl)-1H-benzo[d]imidazole-7-carboxamido) spiro[3.3]heptane-2-carboxylic Acid], the pIC50 was 7.49.
Work on `O=C(NC1CC2(C1)CC(C(=O)O)C2)c1cc(F)cc2ccn(Cc3ccc(C(F)(F)F)cc3)c12` (racemic) [Example 21, rac-6-(5-fluoro-1-(4-(trifluoromethyl)benzyl)-1H-indole-7-carboxamido)spiro heptane-2-carboxylic Acid] yielded a pIC50 of 9.51.
Work on `O=C(NC1CC2(C1)CC(C(=O)O)C2)c1c(F)ccc2ccn(Cc3ccc(C(F)(F)F)cc3)c12` (racemic) [Example 23, rac-6-(6-fluoro-1-(4-(trifluoromethyl)benzyl)-1H-indole-7-carboxamido)spiro heptane-2-carboxylic Acid] yielded a pIC50 of 9.52.
With `N#Cc1ccc(Cn2ccc3cccc(C(=O)NC4CC5(C4)CC(C(=O)O)C5)c32)cc1` (racemic) [Example 24, rac-6-(1-(4-cyanobenzyl)-1H-indole-7-carboxamido)spiro[3.3]heptane-2-carboxylic Acid] the pIC50 was 8.00.
In the case of `O=C(NC1CC2(C1)CC(C(=O)O)C2)c1cccc2ccn(Cc3ccc(C(F)F)cc3)c12` (racemic) [Example 25, rac-6-(1-(4-(difluoromethyl)benzyl)-1H-indole-7-carboxamido)spiro[3.3] heptane-2-carboxylic Acid], the pIC50 was 9.40.
In the case of `O=C(NC1CC2(C1)CC(C(=O)O)C2)c1cccc2ccn(Cc3ccc(S(F)(F)(F)(F)F)cc3)c12` (racemic) [Example 30, rac-6-(1-((4-(pentafluorothiol)phenyl)methyl)-1H-indole-7-carboxamido)spiro heptane-2-carboxylic Acid], the pIC50 was 9.70.
`O=C(NC1CC2(C1)CC(C(=O)O)C2)c1ccc(F)c2ccn(Cc3ccc(C(F)F)cc3)c12` (racemic) [Example 31, rac-6-(1-(4-(difluoromethyl)benzyl)-4-fluoro-1H-indole-7-carboxamido)spiro heptane-2-carboxylic Acid] gave a pIC50 of 10.52.
Work on `N#Cc1ccc(Cn2ccc3cccc(C(=O)NC45CC(CC(=O)O)(C4)C5)c32)cc1` [Example 1, 2-(3-(1-(4-cyanobenzyl)-1H-indole-7-carboxamido)bicyclo[1.1.1]pentan-1-yl) acetic Acid] yielded a pIC50 of 7.89.
Work on `O=C(O)CC12CC(NC(=O)c3cccc4ccn(Cc5ccc(C(F)(F)F)cc5)c34)(C1)C2` [Example 2, 2-(3-(1-(4-(trifluoromethyl)benzyl)-1H-indole-7-carboxamido)bicyclo[1.1.1]pentan-1-yl)acetic Acid] yielded a pIC50 of 8.82.
`O=C(O)CC12CC(NC(=O)c3ccnc4ccn(Cc5ccc(C(F)(F)F)cc5)c34)(C1)C2` [Example 3, 2-(3-(1-(4-(trifluoromethyl)benzyl)-1H-pyrrolo[3,2-b]pyridine-7-carboxamido)bicyclo[1.1.11]pentan-1-yl)acetic Acid] showed a pIC50 of 6.80.
Work on `O=C(O)CC12CC(NC(=O)c3nccc4ccn(Cc5ccc(C(F)(F)F)cc5)c34)(C1)C2` [Example 5, 2-(3-(1-(4-(trifluoromethyl)benzyl)-1H-pyrrolo[2,3-c]pyridine-7-carboxamido)bicyclo[1.1.1]pentan-1-yl)acetic Acid] yielded a pIC50 of 6.03.
For `O=C(O)CC12CC(NC(=O)c3cccc4cnn(Cc5ccc(C(F)(F)F)cc5)c34)(C1)C2` [Example 6, 2-(3-(1-(4-(trifluoromethyl)benzyl)-1H-indazole-7-carboxamido)bicyclo[1.1.1]pentan-1-yl)acetic Acid], the pIC50 was 7.72.
For `[2H]C([2H])(c1ccc(C(F)(F)F)cc1)n1ccc2cccc(C(=O)NC34CC(CC(=O)O)(C3)C4)c21` [Example 7, 2-(3-(1-((4-(trifluoromethyl)phenyl)methyl-d2)-1H-indole-7-carboxamido)bicyclo[1.1.1]pentan-1-yl)acetic Acid], the pIC50 was 8.70.
For `CC1(NC(=O)c2cccc3ccn(Cc4ccc(C(F)(F)F)cc4)c23)CC(CCC(=O)O)C1` (stereo not drawn) [Example 15, cis-3-(3-methyl-3-(1-(4-(trifluoromethyl)benzyl)-1H-indole-7-carboxamido)cyclobutyl)propanoic Acid], the pIC50 was 6.40.
`O=C(CC12CC(NC(=O)c3cccc4ccn(Cc5ccc(C(F)(F)F)cc5)c34)(C1)C2)NS(=O)(=O)c1ccccc1` [Example 16, N-(3-(2-oxo-2-(phenylsulfonamido)ethyl)bicyclo[1.1.1]pentan-1-yl)-1-(4-(trifluoromethyl)benzyl)-1H-indole-7-carboxamide] was tested, and the pIC50 was 6.85.
`O=C(NCC12CC(NC(=O)c3cccc4ccn(Cc5ccc(C(F)(F)F)cc5)c34)(C1)C2)NS(=O)(=O)c1ccccc1` [Example 17, N-(3-((3-(phenylsulfonyl)ureido)methyl)bicyclo[1.1.1]pentan-1-yl)-1-(4-(trifluoromethyl)benzyl)-1H-indole-7-carboxamide] gave a pIC50 of 6.89.
Compound `O=C(NC12CC(Cc3nnn[nH]3)(C1)C2)c1cccc2ccn(Cc3ccc(C(F)(F)F)cc3)c12` [Example 18, N-(3-((1H-tetrazol-5-yl)methyl)bicyclo[1.1.1]pentan-1-yl)-1-(4-(trifluoromethyl)benzyl)-1H-indole-7-carboxamide] has a pIC50 of 8.82.
In the case of `O=C(O)CC12CCC(NC(=O)c3cccc4ccn(Cc5ccc(C(F)(F)F)cc5)c34)(C1)C2` [Example 19, 2-(4-(1-(4-(trifluoromethyl)benzyl)-1H-indole-7-carboxamido)bicyclo[2.1.1]hexan-1-yl)acetic Acid], the pIC50 was 8.04.
`O=C(O)CC12CCC(NC(=O)c3cccc4ccn(Cc5ccc(C(F)F)cc5)c34)(C1)C2` [Example 26, 2-(4-(1-(4-(difluoromethyl)benzyl)-1H-indole-7-carboxamido)bicyclo[2.1.1]hexan-1-yl)acetic Acid] gave a pIC50 of 8.42.
In the case of `O=C(O)CC12CCC(NC(=O)c3ccc(F)c4ccn(Cc5ccc(C(F)(F)F)cc5)c34)(C1)C2` [Example 28, 2-(4-(4-fluoro-1-(4-(trifluoromethyl)benzyl)-1H-indole-7-carboxamido)bicyclohexan-1-yl)acetic Acid], the pIC50 was 9.22.
Compound `O=C(O)CC12CCC(NC(=O)c3cccc4ccn(Cc5ccc(S(F)(F)(F)(F)F)cc5)c34)(C1)C2` [Example 29, 2-(4-(1-((4-(pentafluorothiol)phenyl)methyl)-1H-indole-7-carboxamido)bicyclohexan-1-yl)acetic Acid] has a pIC50 of 8.92.
In the case of `O=C(O)C[C@]12C[C@](NC(=O)c3ccc(F)c4ccn(Cc5ccc(C(F)F)cc5)c34)(C1)C2` [Example 32, 2-(3-(1-(4-(difluoromethyl)benzyl)-4-fluoro-1H-indole-7-carboxamido)bicyclopentan-1-yl)acetic Acid], the pIC50 was 10.00.
For `O=C(O)C[C@]12C[C@](NC(=O)c3cc(F)cc4ccn(Cc5ccc(C(F)(F)F)cc5)c34)(C1)C2` [Example 33, 2-(3-(5-fluoro-1-(4-(trifluoromethyl)benzyl)-1H-indole-7-carboxamido)bicyclopentan-1-yl)acetic Acid], the pIC50 was 10.00.
`O=C(O)C[C@]12C[C@](NC(=O)c3cccc4ccn(Cc5ccc(-c6ccccc6)cc5)c34)(C1)C2` [Example 34, 2-(3-(1-([1,1′-biphenyl]-4-ylmethyl)-1H-indole-7-carboxamido)bicyclo[1.1.1]pentan-1-yl)acetic Acid] was tested, and the pIC50 was 9.66.
`O=C(O)C[C@]12C[C@](NC(=O)c3ccc(F)c4ccn(Cc5ccc(-c6ccccc6)cc5)c34)(C1)C2` [Example 35, 2-(3-(1-([1,1′-biphenyl]-4-ylmethyl)-4-fluoro-1H-indole-7-carboxamido)bicyclo[1.1.11]pentan-1-yl)acetic Acid] was tested, and the pIC50 was 9.55.
`O=C(O)C[C@]12C[C@](NC(=O)c3cccc4cnn(Cc5ccc(-c6ccccc6)cc5)c34)(C1)C2` [Example 36, 2-(3-(1-([1,1′-biphenyl]-4-ylmethyl)-1H-indazole-7-carboxamido)bicyclo[1.1.1]pentan-1-yl)acetic Acid] showed a pIC50 of 9.49.
For `O=C(O)C[C@]12C[C@](NC(=O)c3cccc4cnn(Cc5ccc(OC(F)(F)F)cc5)c34)(C1)C2` [Example 37, 2-(3-(1-(4-(trifluoromethoxy)benzyl)-1H-indazole-7-carboxamido)bicyclo[1.1.1]pentan-1-yl)acetic Acid], the pIC50 was 7.12.
